From US8765746B2 (Millennium Pharmaceuticals, Inc., priority 2010, dated 2014)

Experiments:
Format in all cases: biochemical
PI3Kdelta = molecular target: T1, PI3Kdelta (Homo sapiens, UniProt O00329); assay: Human PI3K delta enzyme assay (HTRF, as for PI3K alpha); settings: for inhibition at 1.11 µM: read-out: PI3Kdelta % inh; for PI3Kdelta % inh: at 1.11 μM
T1 construct: His (N); host or cells: SF9 insect cells (baculovirus)
Description: (§1) The catalytic subunits of PI3Ks are cloned into either pDEST8(p110 alpha) or pDEST10(p110beta, p110delta, and p110gamma) as N-terminal His tagged fusion proteins using the Gateway system (Invitrogen, catalog#11804-010 for pDEST8 and 11806-015 for pDEST10). The sequences are verified before recombinant protein expression using the Baculovirus Expression System with Gateway® Technology. The accession numbers for the subunits are as follows:
(§2) The regulatory subunits of PI3Ks are cloned into pDEST8 as un-tagged protein using the Gateway system (Catalog#11804-010). The sequences are verified before recombinant protein expression using the Baculovirus Expression System with Gateway® Technology. The accession numbers for the subunits are as follows:
(§3) For expression of the p110 complexes, the p85 (MOI of 4) is co-infected with p110 alpha, beta, and delta respectively (1MOI) in SF9 cells and harvested at 60 hours post co-infection. P110 gamma was infected at 1 MOI and harvested at 60 hours post infection.
(§4) For purification, PI3Ks are purified by Ni-NTA Agarose (Qiagen #30250) followed by Mono Q 10/100 GL (Ge Healthcare #17-5167-01). VPS34 is purified by Glutathione Sepharose 4 Fast Flow (GE Healthcare #17-5132-03) followed by HiTrap Q (GE Healthcare #17-1153-01).
(§5) 0.5 uL compounds in DMSO are added to wells of a 384 well microtitre plate (Corning 3575). At room temperature: 10 ul PI3K reaction buffer (50 mM Hepes, 5 mM DTT, 150 mM NaCl, 10 mM beta-glycerophosphate, 10 mM MgCl2, 0.25 mM sodium cholate and 0.001% CHAPS, pH 7.00) containing ATP (25 uM, Promega) is added followed immediately by 10 ul PI3K reaction buffer containing di-C8 PI(4,5)P2 (3.5 uM, CellSignals) and PI3Kalpha (0.4875 nM, Millennium Protein Sciences Group) and the mixture is incubated with shaking at room temperature for 30 minutes. Then 5 ul PI3K stop mix (50 mM Hepes, 5 mM DTT, 150 mM NaCl, 0.01% Tween-20, 15 mM EDTA and 25 nM biotin-PI(3,4,5)P3 (Echelon) is added to quench the reaction followed immediately by addition of 5 ul HTRF detection mix (50 mM Hepes, 5 mM DTT, 150 mM NaCl, 0.01% Tween-20, 40 mM KF, 10 nM GST:GRP-1 PH domain (Millennium Protein Sciences Group), 15 nM Streptavidin-XL (CisBio) and 0.375 nM anti-GST Eu++ antibody (CisBio) at pH 7.00). The plates are then incubated for 1 hour at room temperature with shaking and then read on a BMG PheraStar Plus reader.
(§6) 2) Human PI3K beta, delta and gamma isoforms are tested using the procedure described for PI3K alpha above but with the following changes: PI3K beta (5.25 nM), PI3K delta (0.75 nM) and PI3K gamma (5 nM). All isoforms supplied by Millennium Protein Science Group.

PI3Kalpha = molecular target: T2, PI3Kalpha (Homo sapiens, UniProt P42336); assay: Human PI3Kα enzyme assay (HTRF); settings: for inhibition at 1.11 µM: read-out: PI3Kalpha % inh; for PI3Kalpha % inh: at 1.11 μM
T2 construct: His (N); host or cells: SF9 insect cells (baculovirus)
T2 sequence (P42336 whole entry): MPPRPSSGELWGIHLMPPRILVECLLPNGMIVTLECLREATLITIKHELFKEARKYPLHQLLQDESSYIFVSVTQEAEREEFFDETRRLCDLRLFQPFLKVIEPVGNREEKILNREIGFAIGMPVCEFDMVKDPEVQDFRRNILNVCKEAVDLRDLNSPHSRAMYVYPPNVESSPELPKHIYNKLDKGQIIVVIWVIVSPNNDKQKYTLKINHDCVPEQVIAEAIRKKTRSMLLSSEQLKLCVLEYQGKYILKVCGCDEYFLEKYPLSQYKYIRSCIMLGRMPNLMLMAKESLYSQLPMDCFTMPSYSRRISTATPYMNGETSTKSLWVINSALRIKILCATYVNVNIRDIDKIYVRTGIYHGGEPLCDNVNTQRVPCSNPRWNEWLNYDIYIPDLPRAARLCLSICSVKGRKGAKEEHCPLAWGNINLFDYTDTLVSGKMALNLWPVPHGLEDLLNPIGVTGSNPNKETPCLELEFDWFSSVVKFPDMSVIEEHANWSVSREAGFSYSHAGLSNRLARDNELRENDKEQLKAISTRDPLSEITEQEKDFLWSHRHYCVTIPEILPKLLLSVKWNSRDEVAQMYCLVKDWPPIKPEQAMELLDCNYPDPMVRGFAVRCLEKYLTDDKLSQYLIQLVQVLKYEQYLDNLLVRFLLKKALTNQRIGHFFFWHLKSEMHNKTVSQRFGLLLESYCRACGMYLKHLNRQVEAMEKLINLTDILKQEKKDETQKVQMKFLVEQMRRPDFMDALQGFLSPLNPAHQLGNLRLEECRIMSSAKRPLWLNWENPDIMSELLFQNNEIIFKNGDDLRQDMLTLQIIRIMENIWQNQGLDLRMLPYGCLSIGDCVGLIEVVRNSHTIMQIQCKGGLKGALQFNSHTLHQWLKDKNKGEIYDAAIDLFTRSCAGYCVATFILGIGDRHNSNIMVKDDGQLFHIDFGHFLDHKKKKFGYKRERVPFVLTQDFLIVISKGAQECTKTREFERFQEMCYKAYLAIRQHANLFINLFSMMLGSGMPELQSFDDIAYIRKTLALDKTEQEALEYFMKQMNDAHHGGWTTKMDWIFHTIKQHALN
T2 sequence (P27986 whole entry partner): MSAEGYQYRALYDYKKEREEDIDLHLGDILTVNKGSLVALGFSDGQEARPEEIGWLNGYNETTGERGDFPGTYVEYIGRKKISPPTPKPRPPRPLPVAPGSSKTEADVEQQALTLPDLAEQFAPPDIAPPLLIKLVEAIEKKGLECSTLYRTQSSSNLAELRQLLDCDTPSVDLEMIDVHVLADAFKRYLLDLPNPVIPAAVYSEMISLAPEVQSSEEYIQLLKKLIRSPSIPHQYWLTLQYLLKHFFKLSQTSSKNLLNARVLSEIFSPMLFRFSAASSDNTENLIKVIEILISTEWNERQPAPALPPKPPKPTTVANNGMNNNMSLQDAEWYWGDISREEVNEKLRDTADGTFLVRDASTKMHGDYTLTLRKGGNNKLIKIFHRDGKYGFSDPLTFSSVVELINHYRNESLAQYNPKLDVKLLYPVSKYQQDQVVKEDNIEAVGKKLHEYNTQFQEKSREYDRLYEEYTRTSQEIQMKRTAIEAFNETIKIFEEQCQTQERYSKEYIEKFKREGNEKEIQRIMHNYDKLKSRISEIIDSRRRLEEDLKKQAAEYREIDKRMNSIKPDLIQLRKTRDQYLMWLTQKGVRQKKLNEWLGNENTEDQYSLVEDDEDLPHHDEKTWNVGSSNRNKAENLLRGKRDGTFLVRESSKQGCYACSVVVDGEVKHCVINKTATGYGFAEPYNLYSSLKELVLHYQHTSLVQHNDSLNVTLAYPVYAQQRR
Description: as §1, §2, §3, §4
1) Human PI3Kα enzyme assay method
as §5

PI3Kbeta = molecular target: T3, PI3Kbeta (Homo sapiens, UniProt P42338); assay: Human PI3K beta enzyme assay (HTRF, as for PI3K alpha); settings: for inhibition at 1.11 µM: read-out: PI3Kbeta % inh; for IC50: read-out: IC50 (inhibit PI3Kbeta); for inhibition at 1.11 µM / PI3Kbeta % inh: at 1.11 μM
T3 construct: His (N); host or cells: SF9 insect cells (baculovirus)
T3 sequence (P42338 whole entry): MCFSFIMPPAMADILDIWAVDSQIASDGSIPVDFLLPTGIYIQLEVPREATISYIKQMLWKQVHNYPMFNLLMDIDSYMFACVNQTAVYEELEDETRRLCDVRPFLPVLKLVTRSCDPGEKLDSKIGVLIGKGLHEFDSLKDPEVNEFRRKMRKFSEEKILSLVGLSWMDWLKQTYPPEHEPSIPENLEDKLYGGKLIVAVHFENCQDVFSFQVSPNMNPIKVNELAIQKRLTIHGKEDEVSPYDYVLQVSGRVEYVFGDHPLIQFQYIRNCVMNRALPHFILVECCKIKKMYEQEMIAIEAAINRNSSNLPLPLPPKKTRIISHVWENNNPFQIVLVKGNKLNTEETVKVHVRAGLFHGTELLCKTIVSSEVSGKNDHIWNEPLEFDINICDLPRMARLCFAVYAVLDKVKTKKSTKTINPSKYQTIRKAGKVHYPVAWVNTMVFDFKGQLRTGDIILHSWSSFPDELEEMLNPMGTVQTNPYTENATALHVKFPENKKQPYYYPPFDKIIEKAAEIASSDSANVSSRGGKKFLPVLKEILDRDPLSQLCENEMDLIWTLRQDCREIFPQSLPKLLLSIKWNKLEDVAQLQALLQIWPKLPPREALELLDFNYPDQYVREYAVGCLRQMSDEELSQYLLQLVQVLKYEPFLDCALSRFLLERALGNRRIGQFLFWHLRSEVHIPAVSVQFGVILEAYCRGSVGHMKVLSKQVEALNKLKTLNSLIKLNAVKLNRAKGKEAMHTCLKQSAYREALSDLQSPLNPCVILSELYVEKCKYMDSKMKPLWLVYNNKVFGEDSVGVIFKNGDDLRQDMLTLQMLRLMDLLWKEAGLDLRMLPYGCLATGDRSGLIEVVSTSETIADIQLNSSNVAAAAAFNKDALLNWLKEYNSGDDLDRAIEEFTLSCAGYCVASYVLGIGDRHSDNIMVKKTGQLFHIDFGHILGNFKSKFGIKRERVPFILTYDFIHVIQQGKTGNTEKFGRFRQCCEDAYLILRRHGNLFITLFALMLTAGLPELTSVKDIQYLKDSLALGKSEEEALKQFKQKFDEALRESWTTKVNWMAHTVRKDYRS
T3 sequence (P27986 whole entry partner): as the sequence (P27986 whole entry partner) above
Description: as §1, §2, §3, §4, §5, §6

VPS34 = molecular target: T4, VPS34 (Homo sapiens, UniProt Q8NEB9); assay: Human VPS34 enzyme assay (Adapta Universal Kinase Assay); settings: for inhibition at 1.11 µM: 1 h, read-out: VPS34 % ihn; for VPS34 % ihn: at 1.11 μM
T4 construct: GST (N); host or cells: SF9 insect cells (baculovirus)
Procedure: VPS34 (accession number GB:BC033004) is cloned into pDEST20-Thombin as N-terminal GST tagged fusion proteins using the Gateway system (Invitrogen, catalog#11804-013). The sequences are verified before recombinant protein expression using the Baculovirus Expression System with Gateway® Technology.
For expression VPS34 was infected at 1MOI in SF9 cells and harvested 72 hours post infection.
For purification, VPS34 is purified by Glutathione Sepharose 4 Fast Flow (GE Healthcare #17-5132-03) followed by HiTrap Q (GE Healthcare #17-1153-01).
3) VPS34 is assayed using Adapta™ Universal Kinase Assay Kit (Invitrogen).
4) Human VPS34 enzyme assay method
100 mL compounds in DMSO are added to wells of a 384 well microtitre plate (Greiner 780076). At room temperature: 5 ul VPS34 reaction buffer (Invitrogen Assay Buffer Q (diluted 1 in 5 with nanopure water) plus 2 mM DTT and 2 mM MnCl2) containing ATP (20 uM, Promega) and 200 uM PI-PS substrate (Invitrogen PV5122) is added followed immediately by 5 ul VPS34 reaction buffer (as above) containing VPS34 (5 nM, Millennium Protein Sciences Group) and the mixture is incubated with shaking at room temperature for 1 hour. Then 5 ul VPS34 stop-detect mix (as per Invitrogen Adapta Assay kit (PV5009) instructions (contains kinase quench buffer, TR-FRET buffer, Adapta Eu anti-ADP antibody and Alexa Fluor 647 ADP tracer)) is added to quench the reaction. The plates are then incubated for 30 minutes at room temperature with shaking and then read on a BMG PheraStar Plus reader.

PI3Kgamma = molecular target: T5, PI3Kgamma (Homo sapiens, UniProt P48736); assay: Human PI3K gamma enzyme assay (HTRF, as for PI3K alpha); settings: for inhibition at 1.11 µM: read-out: PI3Kgamma % inh; for PI3Kgamma % inh: at 1.11 μM
T5 construct: His (N); host or cells: SF9 insect cells (baculovirus)
T5 sequence (P48736 whole entry): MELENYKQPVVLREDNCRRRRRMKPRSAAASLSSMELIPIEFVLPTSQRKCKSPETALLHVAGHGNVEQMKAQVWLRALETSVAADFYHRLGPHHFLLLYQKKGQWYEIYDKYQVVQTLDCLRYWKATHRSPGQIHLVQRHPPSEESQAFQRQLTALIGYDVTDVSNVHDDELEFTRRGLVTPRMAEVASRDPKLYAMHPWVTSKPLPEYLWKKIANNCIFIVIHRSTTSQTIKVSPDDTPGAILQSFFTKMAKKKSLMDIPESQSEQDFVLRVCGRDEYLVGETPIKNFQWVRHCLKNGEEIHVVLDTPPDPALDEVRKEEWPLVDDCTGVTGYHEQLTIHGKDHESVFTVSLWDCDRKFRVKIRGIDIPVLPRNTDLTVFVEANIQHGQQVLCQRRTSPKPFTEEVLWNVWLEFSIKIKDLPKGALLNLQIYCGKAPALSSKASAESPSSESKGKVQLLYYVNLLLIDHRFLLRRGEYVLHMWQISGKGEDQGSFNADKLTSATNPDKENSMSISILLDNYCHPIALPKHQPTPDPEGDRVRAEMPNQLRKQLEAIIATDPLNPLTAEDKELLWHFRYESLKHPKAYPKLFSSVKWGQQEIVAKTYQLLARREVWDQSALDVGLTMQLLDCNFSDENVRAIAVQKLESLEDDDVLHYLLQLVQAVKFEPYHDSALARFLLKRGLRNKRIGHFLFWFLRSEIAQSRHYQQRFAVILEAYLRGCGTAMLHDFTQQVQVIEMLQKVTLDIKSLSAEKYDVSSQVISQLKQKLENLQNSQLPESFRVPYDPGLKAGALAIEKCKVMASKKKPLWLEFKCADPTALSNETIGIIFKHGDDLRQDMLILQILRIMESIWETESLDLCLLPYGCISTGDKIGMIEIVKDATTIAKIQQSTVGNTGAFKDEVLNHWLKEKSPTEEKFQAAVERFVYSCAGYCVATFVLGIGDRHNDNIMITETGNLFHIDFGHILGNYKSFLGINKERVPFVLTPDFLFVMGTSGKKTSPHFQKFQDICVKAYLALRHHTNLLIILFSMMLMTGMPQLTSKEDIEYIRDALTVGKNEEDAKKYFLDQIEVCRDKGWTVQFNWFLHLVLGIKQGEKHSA
Description: as §1, §2, §3, §4, §5, §6

T1 sequence (O00329 whole entry): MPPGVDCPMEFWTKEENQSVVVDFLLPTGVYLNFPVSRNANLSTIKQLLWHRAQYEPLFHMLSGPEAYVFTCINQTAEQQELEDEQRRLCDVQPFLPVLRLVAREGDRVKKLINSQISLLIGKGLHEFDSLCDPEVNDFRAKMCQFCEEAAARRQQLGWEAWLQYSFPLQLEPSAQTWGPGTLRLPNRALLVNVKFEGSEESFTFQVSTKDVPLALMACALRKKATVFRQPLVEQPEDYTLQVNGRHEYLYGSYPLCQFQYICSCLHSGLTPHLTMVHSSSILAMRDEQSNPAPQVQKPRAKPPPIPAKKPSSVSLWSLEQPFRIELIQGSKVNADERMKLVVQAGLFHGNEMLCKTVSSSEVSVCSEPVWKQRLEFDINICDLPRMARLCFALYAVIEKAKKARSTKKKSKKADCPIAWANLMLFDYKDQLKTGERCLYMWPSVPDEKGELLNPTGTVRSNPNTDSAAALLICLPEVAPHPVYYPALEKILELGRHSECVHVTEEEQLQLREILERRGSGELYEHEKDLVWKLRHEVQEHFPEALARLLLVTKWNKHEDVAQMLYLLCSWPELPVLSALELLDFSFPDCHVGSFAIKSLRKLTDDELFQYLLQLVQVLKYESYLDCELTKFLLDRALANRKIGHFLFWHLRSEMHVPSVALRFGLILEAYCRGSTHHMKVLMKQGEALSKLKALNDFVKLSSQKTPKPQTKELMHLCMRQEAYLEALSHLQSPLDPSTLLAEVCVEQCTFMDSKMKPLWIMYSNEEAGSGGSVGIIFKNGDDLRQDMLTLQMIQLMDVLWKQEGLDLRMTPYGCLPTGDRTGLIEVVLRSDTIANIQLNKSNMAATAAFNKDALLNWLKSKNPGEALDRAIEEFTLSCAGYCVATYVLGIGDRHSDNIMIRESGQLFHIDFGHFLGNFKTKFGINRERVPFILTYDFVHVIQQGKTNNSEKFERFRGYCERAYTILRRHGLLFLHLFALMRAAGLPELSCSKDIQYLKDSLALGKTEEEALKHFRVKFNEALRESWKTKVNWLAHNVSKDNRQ
T1 sequence (P27986 whole entry partner): as the sequence (P27986 whole entry partner) above

inhibition at 1.11 µM (PI3Kdelta) [%]	inhibition at 1.11 µM (PI3Kalpha) [%]	inhibition at 1.11 µM (PI3Kbeta) [%]	IC50 (PI3Kbeta) [nM]	inhibition at 1.11 µM (VPS34) [%]	inhibition at 1.11 µM (PI3Kgamma) [%]	PI3Kdelta % inh (PI3Kdelta) [%]	PI3Kalpha % inh (PI3Kalpha) [%]	PI3Kbeta % inh (PI3Kbeta) [%]	VPS34 % ihn (VPS34) [%]	PI3Kgamma % inh (PI3Kgamma) [%]	SMILES
55.7	3.1	102	< 100	6.6	10.8	–	–	–	–	–	O=C1CCC(c2ccc(Cl)cc2)c2cc(-c3ccncc3)sc21 (racemic) [Compound 13, 4-(4-chlorophenyl)-2-pyridin-4-yl-5,6-dihydro-1-benzothiophen-7(4H)-one]
37.9	6.6	105	< 100	1.2	11.7	–	–	–	–	–	O=S1(=O)NCC(O)(c2ccc(Cl)cc2)c2cc(-c3ccncc3)sc21 (racemic) [Compound 26, 4-(4-chlorophenyl)-6-pyridin-4-yl-3,4-dihydro-2H-thieno[3,2-e][1,2]thiazin-4-ol 1,1-dioxide]
20.9	6	87.8	100 to 1000	1.4	4.6	–	–	–	–	–	COC(=O)[C@@H]1C(=O)c2sc(-c3ccncc3)cc2[C@H]1c1ccc(Cl)cc1 (relative stereo) [Compound 29, trans-methyl 4-(4-chlorophenyl)-6-oxo-2-(pyridin-4-yl)-5,6-dihydro-4H-cyclopenta[b]thiophene-5-carboxylate]
–	3.6	–	100 to 1000	–	–	41.900	–	67.200	−2.200	3.300	O=S1(=O)NCC(O)(c2ccc(Cl)cc2)c2cc(-c3ccncc3)sc21 (single isomer, unassigned) [Compound 9, 4-(4-chlorophenyl)-6-pyridin-4-yl-3,4-dihydro-2H-thieno[3,2-e][1,2]thiazin-4-ol 1,1-dioxide]
–	6.07	–	< 100	9.1	–	79.150	–	111.967	–	24.700	O=C1NCCC(c2ccc(Cl)cc2)c2cc(-c3ccncc3)sc21 (single isomer, unassigned) [Compound 21, 4-(4-chlorophenyl)-2-pyridin-4-yl-4,5,6,7-tetrahydro-8H-thieno[2,3-c]azepin-8-one]
–	10.8	65.7	100 to 1000	-2.5	–	–	–	–	–	–	N#Cc1c(N2CCOCC2)sc2c1C(c1ccc(Cl)cc1)OC2=O (stereo not drawn) [Compound 3, 4-(4-chlorophenyl)-2-morpholin-4-yl-6-oxo-4,6-dihydrothieno[2,3-c]furan-3-carbonitrile]
98.2	50.6	99.7	–	–	71.3	–	–	–	–	–	N#Cc1c(N2CCOCC2)sc2c1C(c1ccc3ccccc3c1)NC2=O (stereo not drawn) [Compound 169]
51.6	–	–	–	–	12.5	–	22.53	83.73	–	–	O=C1N[C@@H](C(=O)NCCCO)[C@H](c2ccc(Cl)cc2)c2cc(N3CCOCC3)sc21 [Compound 170]

More lines, now with the values behind:

SMILES	inhibition at 1.11 µM (PI3Kdelta) [%]	inhibition at 1.11 µM (PI3Kalpha) [%]	inhibition at 1.11 µM (PI3Kbeta) [%]	IC50 (PI3Kbeta) [nM]	inhibition at 1.11 µM (VPS34) [%]	inhibition at 1.11 µM (PI3Kgamma) [%]	PI3Kdelta % inh (PI3Kdelta) [%]	PI3Kalpha % inh (PI3Kalpha) [%]	PI3Kbeta % inh (PI3Kbeta) [%]	VPS34 % ihn (VPS34) [%]	PI3Kgamma % inh (PI3Kgamma) [%]
O=C1NCCC(c2ccc(Cl)cc2)c2cc(-c3ccncc3)sc21 (racemic) [Compound 8, 4-(4-chlorophenyl)-2-pyridin-4-yl-4,5,6,7-tetrahydro-8H-thieno[2,3-c]azepin-8-one]	59.2	2.05	102	< 100	2.55	21.9	–	–	–	–	–
CC1(C)C(=O)c2sc(N3CCOCC3)cc2C1(C)c1ccc(Cl)cc1 (racemic) [Compound 118, 4-(4-chlorophenyl)-4,5,5-trimethyl-2-morpholino-4H-cyclopenta[b]thiophen-6(5H)-one]	54.6	19.7	63	–	9.51	5.03	–	–	–	–	–
O=S1(=O)NCC(O)(c2ccc(Cl)cc2)c2cc(-c3ccncc3)sc21 (single isomer, unassigned) [Compound 2, 4-(4-chlorophenyl)-6-pyridin-4-yl-3,4-dihydro-2H-thieno[3,2-e][1,2]thiazin-4-ol 1,1-dioxide]	–	–	–	< 100	–	–	63.100	3.200	110.400	4.300	21.200
O=C1CCC(c2ccc(Cl)cc2)c2cc(-c3ccncc3)sc21 (single isomer, unassigned) [Compound 22, 4-(4-chlorophenyl)-2-pyridin-4-yl-5,6-dihydro-1-benzothiophen-7(4H)-one]	44.5	–	–	< 100	4.4	14.2	–	0.600	97.500	–	–
O=C1NCCC(c2ccc(Cl)cc2)c2cc(-c3ccncc3)sc21 (single isomer, unassigned) [Compound 25, 4-(4-chlorophenyl)-2-pyridin-4-yl-4,5,6,7-tetrahydro-8H-thieno[2,3-c]azepin-8-one]	–	–	–	100 to 1000	–	–	31.200	3.700	69.800	10.900	4.500
O=C1NCCC(c2ccc3ccccc3c2)c2cc(N3CCOCC3)sc21 (stereo not drawn) [Compound 175]	112	66.9	112	–	–	43.8	–	–	–	–	–
O=C1NCC(c2ccc(Cl)c(Cl)c2)c2cc(N3CCOCC3)sc21 (stereo not drawn) [Compound 176, 4-(3,4-dichlorophenyl)-2-morpholino-5,6-dihydrothieno[2,3-c]pyridin-7(4H)-one]	108	–	–	–	–	60.1	–	28.06	105.20	–	–
Cc1cc(C2CNC(=O)c3sc(N4CCOCC4)c(C#N)c32)ccc1Cl (stereo not drawn) [Compound 190]	101	57.5	123	–	–	35.8	–	–	–	–	–
CCNC(=O)[C@@H]1NC(=O)c2sc(N3CCOCC3)cc2[C@H]1c1ccc(Cl)cc1 [Compound 197]	47.4	–	84.1	–	–	9.08	–	19.34	–	–	–
